Test results as given in patent US20250250251A1, “PIPERIDINYLPYRIDINYLCARBONITRILE DERIVATIVES AS INHIBITORS OF GLUTAMINYL-PEPTIDE CYCLOTRANSFERASE AND GLUTAMINYL-PEPTIDE CYCLOTRANSFERASE LIKE PROTEIN” (Boehringer Ingelheim International GmbH, priority 2024, published 2025).
pIC50: −log10 of the molar value. Like-named read-outs stand apart in the source and are kept apart here. Each block holds one compound with its values, some of them ahead of it.

Tests used:
CYP3A4 mRNA = assay: Assay D: CYP induction screening assay in primary human hepatocytes; format: in vitro ADME; details: 48 h
Protocol: Cryopreserved plateable human hepatocytes (single donor. BioIVT) were thawed and plated in Collagen-I coated 96-well-plates at a cell density of 0.07 million cells per well.
After a 6 h attachment period, the seeding medium was replaced by serum-free William's medium E supplemented with Matrigel (0.25 mg/ml) and allowed to recover overnight. 24 h post-seeding, serum-free Williams E medium containing the test compound at a final concentration of […] and a final DMSO content of 0.1% and 0.1% DMSO (solvent-treated control), respectively, was added to predefined wells. Exposure solutions were renewed after 24 h.
After 48 h of treatment in total, the effect of the test compounds on CYP3A4 mRNA expression was assessed using the QuantiGene Plex Gene Expression Assay. Hepatocytes were lysed and total RNA was extracted using the QuantiGene Sample Processing Kit according to the instructions of the manufacturer.
mRNA quantification was conducted using a customized QuantiGene Plex Panel to analyse CYP3A4 and the housekeeper genes RPL32, EIF4E2 and GUSB according to the instructions of the manufacturer and measured on a Luminex™ instrument. Signal was reported as median fluorescence intensity (MFI), which is proportional to the number of target RNA molecules present in the sample.
For calculation of CYP3A4 mRNA induction, the signal for CYP3A4 was normalized against the geometric mean of the signal obtained for the housekeeper genes for hepatocytes exposed to test compounds in relation to solvent-treated samples according to the following equation: […]

QPCT = target: T1, QPCT (Homo sapiens, UniProt Q16769); assay: Assay A: biochemical QPCT activity assay (MALDI-TOF MS, CD47 peptide substrate); details: read-out: Inhibition of QPCT: IC50
T1 construct: purchased Origine (OriGene) TP700028
T1 sequence (Q16769 29-361): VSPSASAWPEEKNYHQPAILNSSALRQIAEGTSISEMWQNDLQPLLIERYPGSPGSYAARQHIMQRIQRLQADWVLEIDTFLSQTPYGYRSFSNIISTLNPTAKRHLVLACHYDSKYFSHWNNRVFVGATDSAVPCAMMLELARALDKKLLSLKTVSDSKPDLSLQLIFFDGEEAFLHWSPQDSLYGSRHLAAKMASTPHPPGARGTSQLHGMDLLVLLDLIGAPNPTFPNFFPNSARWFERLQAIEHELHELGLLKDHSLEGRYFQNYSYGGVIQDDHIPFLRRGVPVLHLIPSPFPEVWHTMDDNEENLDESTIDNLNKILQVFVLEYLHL
Protocol: (§1) QPCT or QPCTL dependent conversion of N-terminal glutamine to pyroglutamate of CD47 was monitored via MALDI-TOF MS. Test compounds were dissolved in 100% DMSO and serially diluted into clear 1,536-well microtiter plates. Enzymatic reactions were set up in assay buffer containing 20 mM Tris pH 7.5, 0.1 mM TCEP, 0.01% BSA, and 0.001% Tween20. […] The plates were incubated for 10 min in a humidified incubator at 24° C. Subsequently, 2.5 μL of CD47 peptide substrate surrogate (^19[…]^33) was added to each well (final concentration: 10 μM for QPCTL/20 μM for QPCT). The plates were mixed for 30 sec at 1,000 rpm and subsequently incubated for 40 min in a humidified incubator at 24° C. […] The plates were sealed with an adhesive foil, mixed for 30 s at 1,000 rpm and stored at room temperature until preparation of the MALDI target plates. MALDI target plates were prepared as described previously. […] QPCT or QPCTL activity was monitored by calculating the ratio between product and internal standard signals followed by normalization to high (100% activity) and low (0% activity) controls. Determination of compound potencies was obtained by fitting the dose-response data to a four-parameter logistical equation.

QPCTL = target: T2, QPCTL (Homo sapiens, UniProt Q9NXS2); assay: Assay A: biochemical QPCTL activity assay (MALDI-TOF MS, CD47 peptide substrate); details: read-out: Inhibition of QPCTL: IC50
T2 construct: made in house
T2 sequence (Q9NXS2 whole entry, species assumed): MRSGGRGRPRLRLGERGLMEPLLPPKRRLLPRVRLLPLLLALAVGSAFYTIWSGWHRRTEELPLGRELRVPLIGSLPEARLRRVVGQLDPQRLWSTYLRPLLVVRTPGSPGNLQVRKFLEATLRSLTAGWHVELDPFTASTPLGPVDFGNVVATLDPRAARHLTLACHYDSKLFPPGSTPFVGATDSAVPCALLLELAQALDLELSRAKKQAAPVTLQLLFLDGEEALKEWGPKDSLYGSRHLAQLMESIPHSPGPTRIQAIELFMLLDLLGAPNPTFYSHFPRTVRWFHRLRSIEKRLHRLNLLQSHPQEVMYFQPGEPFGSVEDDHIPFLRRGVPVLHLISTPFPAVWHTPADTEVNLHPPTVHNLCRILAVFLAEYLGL
Protocol: as §1

[1] = system: SIRPα signalling induced by A549 cells; assay: Assay B: SIRPα signalling assay using A549 cells; format: cell-based; details: Homo sapiens, read-out: Inhibition of SIRPα signalling induced by A549 cells: IC50
Protocol: Two cell types are independently used: the Raji cell line (lymphoblast-like human cell line derived from B lymphocytes from a Burkitt's lymphoma patient in 1963) and A549 cells (adenocarcinoma human alveolar basal epithelial cells).
Test compounds were dissolved in 100% DMSO and serially diluted into a white 384-well microtiter cell culture plate (PerkinElmer #60076780 in case of Raji assay; PDL-coated plates Greiner #781945 in case of A549 assay). 5000 Raji cells (ATCC #CC86) or 5000 A549 cells (ATCC #CCL-185) in Assay Complete Cell Plating reagent 30 (DiscoverX 93-0563R30B) were added per well. The assay plate was incubated for 48 h at 37° C., 95% humidity and 5% CO2. 15000 reporter cells (Jurkat PathHunter SIRPαV1, DiscoverX #93-1135C19) were added to each well, and the plate was incubated for 5 h at 37° C., 95% humidity and 5% CO2. Bioassay reagent 1 of the PathHunter Bioassay detection kit (DiscoverX 93-0001) was added to each well of the plate using a multichannel pipette followed by a 15 min incubation at room temperature. Afterwards bioassay reagent 2 was added followed by 60 min incubation at room temperature (incubation in the dark).
The analysis of the data was performed using the luminescence signal generated by beta-galactosidase in the PathHunter reporter cell line. The luminescence measurement was done using a Pherastar Multi-Mode Reader. Dose-response curves & IC50 data were calculated with 4-parameter sigmoidal dose response formula.

[2] = Assay C: permeability in CACO-2 cells; format: in vitro ADME; details: human; for efflux ratio: read-out: Efflux Ratio
Protocol: Caco-2 cells (1-2×10^5 cells/1 cm^2 area) are seeded on filter inserts (Costar transwell polycarbonate or PET filters, 0.4 μm pore size) and cultured (DMEM) for 10 to 25 days. Compounds are dissolved in appropriate solvent (like DMSO, 1-20 mM stock solutions). […] The transport solution (TL) is applied to the apical or basolateral donor side for measuring A-B or B-A permeability (3 filter replicates), respectively. Samples are collected at the start and end of experiment from the donor and at various time intervals for up to 2 hours also from the receiver side for concentration measurement by HPLC-MS/MS or scintillation counting. Sampled receiver volumes are replaced with fresh receiver solution.
Efflux ratio (ER)=permeability B−A/permeability A−B

murine hepatocytes = assay: Assay E: stability in murine hepatocytes; format: in vitro ADME, mouse; details: 1 μM, 5% species serum
Protocol: The metabolic degradation of the test compound is assayed in a murine hepatocyte suspension.
Murine hepatocytes (typically cryopreserved) are incubated in an appropriate buffer system (e.g. Dulbecco's modified eagle medium plus 3.5 μg glucagon/500 mL, 2.5 mg insulin/500 mL and 3.75 mg/500 mL hydrocortison) containing 5% species serum.
Following a (typically) 30 min preincubation in an incubator (37° C., 10% CO2) 5 μl of test compound solution (80 μM; from 2 mM in DMSO stock solution diluted 1:25 with medium) are added into 395 μl hepatocyte suspension (cell density in the range 0.25-5 Mio cells/mL, typically 1 Mio cells/mL; final concentration of test compound 1 μM, final DMSO concentration 0.05%).
The cells are incubated for six hours (incubator, orbital shaker) and samples (25 μl) are taken at 0, 0.5, 1, 2, 4 and 6 hours. Samples are transferred into acetonitrile and pelleted by centrifugation (5 min). The supernatant is transferred to a new 96-deepwell plate, evaporated under nitrogen and resuspended.
Decline of parent compound is analyzed by HPLC-MS/MS
CLint is calculated as follows CL_[…]=Dose/AUC=(C0/CD)/(AUD+clast/k)×1000/60. C0: initial concentration in the incubation [μM], CD: cell density of vital cells [10e6 cells/mL], AUD: area under the data [μM×h], clast: concentration of last data point [μM], k: slope of the regression line for parent decline [h−1].
The calculated in vitro hepatic intrinsic clearance can be scaled up to the intrinsic in vivo hepatic Clearance and used to predict hepatic in vivo blood clearance (CL) by the use of a liver model (well stirred model).
[formula] [formula] [formula] • Hepatocellularity, mouse: 120×10e6 cells/g liver • Liver factor, mouse: 55 g/kg bodyweight • Blood flow, mouse: 90 ml/(min×kg)

[3] = system: SIRPα signalling induced by Raji cells; assay: Assay B: SIRPα signalling assay using Raji cells; format: cell-based; details: Homo sapiens, read-out: Inhibition of SIRPα signalling induced by Raji cells: IC50
Protocol: Bioassay reagent 1 of the PathHunter Bioassay detection kit (DiscoverX 93-0001) was added to each well of the plate using a multichannel pipette followed by a 15 min incubation at room temperature. Afterwards bioassay reagent 2 was added followed by 60 min incubation at room temperature (incubation in the dark).
The analysis of the data was performed using the luminescence signal generated by beta-galactosidase in the PathHunter reporter cell line. The luminescence measurement was done using a Pherastar Multi-Mode Reader.

[4] = Table 9, compounds of the invention
[5] = Table 2, compounds of the invention
[6] = Table 4, compounds of the invention
[7] = pH 7.2, Table 7, compounds of the invention, CACO-2 cells
[8] = pH 7.2, Table 7, compounds of the invention, CACO-2 cells, permeability B-A/permeability A-B
[9] = Table 12, compounds of the invention

SMILES: Cn1cnnc1C1CCN(c2c(C#N)cccc2-c2cnc3cn[nH]c3c2)CC1 [Compound 125, reference compound]
n-fold induction of CYP3A4 at 10 μM (CYP3A4 mRNA; Table 10, prior art compounds): 2.1 n-fold
pIC50 (QPCT; Table 3, prior art compounds): 6.35
pIC50 (QPCTL; Table 3, prior art compounds): 6.80
pIC50 ([1]; Table 5, prior art compounds): < 5.00
Papp A→B ([2]; Caco-2, pH 7.2): 0.6 ×10⁻⁶ cm/s
efflux ratio ([2]; Caco-2, pH 7.2): 30.4
Mouse Hepatocyte Stability QH (murine hepatocytes; Table 13, prior art compounds): 45%
pIC50 ([3]; Table 5, prior art compounds): 5.35

SMILES: Cn1cnnc1C1CCN(c2c(C#N)cccc2-c2cncc3c2cnn3C)CC1 [Compound 4, reference compound]
n-fold induction of CYP3A4 at 10 μM (CYP3A4 mRNA; Table 10, prior art compounds): 0.8 n-fold
pIC50 (QPCT; Table 3, prior art compounds): 6.50
pIC50 (QPCTL; Table 3, prior art compounds): 7.01
pIC50 ([1]; Table 5, prior art compounds): 5.35
Papp A→B ([2]; Caco-2, pH 7.2): 0.3 ×10⁻⁶ cm/s
efflux ratio ([2]; Caco-2, pH 7.2): 28.1
Mouse Hepatocyte Stability QH (murine hepatocytes; Table 13, prior art compounds): 92%
pIC50 ([3]; Table 5, prior art compounds): < 5.00

SMILES: Cn1cnnc1C1(F)CCN(c2c(C#N)cc(-c3ccc(F)cc3)nc2-c2ccnnc2)CC1 [Example 18]
n-fold induction of CYP3A4 at 10 μM (CYP3A4 mRNA; [4]): 1.3 n-fold
pIC50 (QPCT; [5]): 8.30
pIC50 (QPCTL; [5]): 8.40
pIC50 [1, 6]: 7.09
Papp A→B [2, 7]: 2.3 ×10⁻⁶ cm/s
efflux ratio [2, 8]: 17
Mouse Hepatocyte Stability QH (murine hepatocytes; [9]): 44%
pIC50 [3, 6]: 6.58

Now from value to compound:

n-fold induction of CYP3A4 at 10 μM (CYP3A4 mRNA; [4]): 1.1 n-fold
pIC50 (QPCT; [5]): 8.70
pIC50 (QPCTL; [5]): 8.70
pIC50 [1, 6]: 7.60
Papp A→B [2, 7]: 8.1 ×10⁻⁶ cm/s
efflux ratio [2, 8]: 7.2
Mouse Hepatocyte Stability QH (murine hepatocytes; [9]): <12%
pIC50 [3, 6]: 6.86
SMILES: Cc1ncc(-c2cc(C#N)c(N3CCC(F)(c4nncn4C)CC3)c(-c3cnc4nn(C(F)(F)F)cc4c3)n2)o1 [Example 19]

n-fold induction of CYP3A4 at 10 μM (CYP3A4 mRNA; [4]): 0.5 n-fold
pIC50 (QPCT; [5]): 9.00
pIC50 (QPCTL; [5]): 8.70
pIC50 [1, 6]: 6.96
Papp A→B [2, 7]: 4.3 ×10⁻⁶ cm/s
efflux ratio [2, 8]: 12.8
Mouse Hepatocyte Stability QH (murine hepatocytes; [9]): <12%
pIC50 [3, 6]: 6.21
SMILES: Cn1cnnc1C1(F)CCN(c2c(C#N)cc(-c3cnc(C(F)(F)F)nc3)nc2-c2cnc3nn(C(F)(F)F)cc3c2)CC1 [Example 20]

n-fold induction of CYP3A4 at 10 μM (CYP3A4 mRNA; [4]): 1.1 n-fold
pIC50 (QPCT; [5]): 8.70
pIC50 (QPCTL; [5]): 9.00
pIC50 [1, 6]: 7.37
Papp A→B [2, 7]: 4.1 ×10⁻⁶ cm/s
efflux ratio [2, 8]: 16.3
Mouse Hepatocyte Stability QH (murine hepatocytes; [9]): <12%
pIC50 [3, 6]: 6.77
SMILES: Cc1nn(C)c(C)c1-c1cc(C#N)c(N2CCC(F)(c3nncn3C)CC2)c(-c2cnc3nn(C(F)(F)F)cc3c2)n1 [Example 23]

n-fold induction of CYP3A4 at 10 μM (CYP3A4 mRNA; [4]): 5.0 n-fold
pIC50 (QPCT; [5]): 8.52
pIC50 (QPCTL; [5]): 8.52
pIC50 [1, 6]: 7.43
Papp A→B [2, 7]: 32 ×10⁻⁶ cm/s
efflux ratio [2, 8]: 2.5
Mouse Hepatocyte Stability QH (murine hepatocytes; [9]): 32%
pIC50 [3, 6]: 6.78
SMILES: Cn1cnnc1C1(F)CCN(c2c(C#N)cc(C3CC3)nc2-c2cnc3nn(C)c(C(F)(F)F)c3c2)CC1 [Example 11]

n-fold induction of CYP3A4 at 10 μM (CYP3A4 mRNA; [4]): 7.9 n-fold
pIC50 (QPCT; [5]): 9.00
pIC50 (QPCTL; [5]): 9.00
pIC50 [1, 6]: 7.96
Papp A→B [2, 7]: 17 ×10⁻⁶ cm/s
efflux ratio [2, 8]: 4.8
Mouse Hepatocyte Stability QH (murine hepatocytes; [9]): 27%
pIC50 [3, 6]: 8.40
SMILES: Cn1cnnc1C1(F)CCN(c2c(C#N)cc(C(F)(F)F)nc2-c2cnc3nn(C(C)(C)C)c(C4CC4)c3c2)CC1 [Example 26]
